Assay results: PubChem BioAssay AID1963962 (Molecular Pharmacology Branch, DTP, NCI, 2024)
One block for each molecule: values may come before it.

System: 967376-340-R-J2-PDC multicell spheroid viability
Test: Anticancer human tumor 967376-340-R-J2-PDC patient-derived colon adenocarcinoma cell line growth inhibition [PI3K]
Settings: for IC50: curve of first compound; for viability, T/C: stronger effect = lower value
Summary of the method: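 High-throughput combination screen: PI3K inhibitors crossed with targeted small molecules on complex spheroids of tumor cells, HUVEC and MSCs at 37 degrees C, 5% CO2. Top concentration was at or near clinical Cmax (otherwise 10 microM), with half-log decrements.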

[1] = second compound 0.00316 µM, first compound 0.0316 µM
[2] = second compound 0.00316 µM, first compound 0.1 µM
[3] = second compound 0.00316 µM, first compound 0.316 µM
[4] = second compound 0.00316 µM, first compound 1 µM
[5] = second compound 0.00316 µM, first compound 3.16 µM
[6] = second compound 0.00316 µM, first compound 10 µM
[7] = second compound 0.01 µM, first compound 0.0316 µM
[8] = second compound 0.01 µM, first compound 0.1 µM
[9] = second compound 0.01 µM, first compound 0.316 µM
[10] = second compound 0.01 µM, first compound 1 µM
[11] = second compound 0.01 µM, first compound 3.16 µM
[12] = second compound 0.01 µM, first compound 10 µM
[13] = second compound 0.0316 µM, first compound 0.0316 µM
[14] = second compound 0.0316 µM, first compound 0.1 µM
[15] = second compound 0.0316 µM, first compound 0.316 µM
[16] = second compound 0.0316 µM, first compound 1 µM
[17] = second compound 0.0316 µM, first compound 3.16 µM
[18] = second compound 0.0316 µM, first compound 10 µM
[19] = second compound 0.1 µM, first compound 0.0316 µM
[20] = second compound 0.1 µM, first compound 0.1 µM
[21] = second compound 0.1 µM, first compound 0.316 µM
[22] = second compound 0.1 µM, first compound 1 µM
[23] = second compound 0.1 µM, first compound 3.16 µM
[24] = second compound 0.1 µM, first compound 10 µM
[25] = second compound 0.316 µM, first compound 0.0316 µM
[26] = second compound 0.316 µM, first compound 0.1 µM
[27] = second compound 0.316 µM, first compound 0.316 µM
[28] = second compound 0.316 µM, first compound 1 µM
[29] = second compound 0.316 µM, first compound 3.16 µM
[30] = second compound 0.316 µM, first compound 10 µM
[31] = second compound 1 µM, first compound 0.0316 µM
[32] = second compound 1 µM, first compound 0.1 µM
[33] = second compound 1 µM, first compound 0.316 µM
[34] = second compound 1 µM, first compound 1 µM
[35] = second compound 1 µM, first compound 3.16 µM
[36] = second compound 1 µM, first compound 10 µM
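Note: spheroids exposed to agents for 7 days before read-out.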
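Throughout, for viability, T/C: luminescence used as surrogate of cell viability.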

IC50 (second compound 0.00316 µM): > 10 µM
IC50 (second compound 0.01 µM): > 10 µM
IC50 (second compound 0.0316 µM): > 10 µM
IC50 (second compound 0.1 µM): 1.21 µM
IC50 (second compound 0.316 µM): 3.64 µM
IC50 (second compound 1 µM): < 0.0316 µM
SMILES: C#Cc1c(F)ccc2cc(O)cc(-c3ncc4c(N5CC6CCC(C5)N6)nc(OCC56CCCN5CC(F)C6)nc4c3F)c12 (stereo not given) + COc1c(OCCCN2CCOCC2)ccc2c3n(c(=NC(=O)c4cnc(N)nc4)nc12)CCN3
viability, T/C [1]: 89%
viability, T/C [2]: 99.1%
viability, T/C [3]: 101%
viability, T/C [4]: 109%
viability, T/C [5]: 91.8%
viability, T/C [6]: 84.7%
viability, T/C [7]: 94.2%
viability, T/C [8]: 102%
viability, T/C [9]: 79.2%
viability, T/C [10]: 91.6%
viability, T/C [11]: 77.9%
viability, T/C [12]: 62.9%
viability, T/C [13]: 83%
viability, T/C [14]: 82.5%
viability, T/C [15]: 81.5%
viability, T/C [16]: 77.1%
viability, T/C [17]: 81.8%
viability, T/C [18]: 57.3%
viability, T/C [19]: 68.4%
viability, T/C [20]: 61.8%
viability, T/C [21]: 58.1%
viability, T/C [22]: 48.8%
viability, T/C [23]: 47.1%
viability, T/C [24]: 49%
viability, T/C [25]: 56.1%
viability, T/C [26]: 48.2%
viability, T/C [27]: 53.7%
viability, T/C [28]: 42.3%
viability, T/C [29]: 63.6%
viability, T/C [30]: 29.8%
viability, T/C [31]: 42.9%
viability, T/C [32]: 40.9%
viability, T/C [33]: 44.2%
viability, T/C [34]: 40%
viability, T/C [35]: 40.7%
viability, T/C [36]: 18.6%

IC50 (second compound 0.00316 µM): > 10 µM
IC50 (second compound 0.01 µM): > 10 µM
IC50 (second compound 0.0316 µM): > 10 µM
IC50 (second compound 0.1 µM): > 10 µM
IC50 (second compound 0.316 µM): 0.0954 µM
IC50 (second compound 1 µM): < 0.0316 µM
SMILES: CC(Cn1ccc(-c2ccc(C#N)c(Cl)c2)n1)NC(=O)c1cc(C(C)O)[nH]n1 (stereo not given) + COc1c(OCCCN2CCOCC2)ccc2c3n(c(=NC(=O)c4cnc(N)nc4)nc12)CCN3
viability, T/C [1]: 109%
viability, T/C [2]: 117%
viability, T/C [3]: 79.6%
viability, T/C [4]: 93.6%
viability, T/C [5]: 110%
viability, T/C [6]: 86%
viability, T/C [7]: 91.2%
viability, T/C [8]: 77%
viability, T/C [9]: 76.8%
viability, T/C [10]: 91.6%
viability, T/C [11]: 82.7%
viability, T/C [12]: 86.1%
viability, T/C [13]: 81.7%
viability, T/C [14]: 88.1%
viability, T/C [15]: 61.9%
viability, T/C [16]: 57.7%
viability, T/C [17]: 76.4%
viability, T/C [18]: 63.8%
viability, T/C [19]: 78.6%
viability, T/C [20]: 54.4%
viability, T/C [21]: 59.4%
viability, T/C [22]: 67.5%
viability, T/C [23]: 70.5%
viability, T/C [24]: 59.5%
viability, T/C [25]: 64.2%
viability, T/C [26]: 44.9%
viability, T/C [27]: 48.2%
viability, T/C [28]: 46.1%
viability, T/C [29]: 57.4%
viability, T/C [30]: 50.3%
viability, T/C [31]: 36.6%
viability, T/C [32]: 42.4%
viability, T/C [33]: 26.6%
viability, T/C [34]: 47.1%
viability, T/C [35]: 34.4%
viability, T/C [36]: 32.6%

The next lines start with the molecule.

SMILES: C=CC(=O)N1CCN(c2nc(=O)n(-c3c(C)ccnc3C(C)C)c3nc(-c4c(O)cccc4F)c(F)cc23)C(C)C1 (stereo not given) + COc1c(OCCCN2CCOCC2)ccc2c3n(c(=NC(=O)c4cnc(N)nc4)nc12)CCN3
IC50 (second compound 0.00316 µM): > 10 µM
IC50 (second compound 0.01 µM): > 10 µM
IC50 (second compound 0.0316 µM): > 10 µM
IC50 (second compound 0.1 µM): > 10 µM
IC50 (second compound 0.316 µM): < 0.0316 µM
IC50 (second compound 1 µM): < 0.0316 µM
viability, T/C [1]: 112%
viability, T/C [2]: 101%
viability, T/C [3]: 91.7%
viability, T/C [4]: 92.6%
viability, T/C [5]: 111%
viability, T/C [6]: 70.2%
viability, T/C [7]: 95.5%
viability, T/C [8]: 97.8%
viability, T/C [9]: 90.8%
viability, T/C [10]: 80.4%
viability, T/C [11]: 84.8%
viability, T/C [12]: 73.5%
viability, T/C [13]: 74%
viability, T/C [14]: 81.7%
viability, T/C [15]: 73.1%
viability, T/C [16]: 70.3%
viability, T/C [17]: 85.6%
viability, T/C [18]: 79.8%
viability, T/C [19]: 55.3%
viability, T/C [20]: 78.6%
viability, T/C [21]: 63.9%
viability, T/C [22]: 66%
viability, T/C [23]: 84%
viability, T/C [24]: 52%
viability, T/C [25]: 50.5%
viability, T/C [26]: 41%
viability, T/C [27]: 41.3%
viability, T/C [28]: 40.3%
viability, T/C [29]: 50.1%
viability, T/C [30]: 42.6%
viability, T/C [31]: 33.6%
viability, T/C [32]: 36%
viability, T/C [33]: 29.6%
viability, T/C [34]: 34.5%
viability, T/C [35]: 37.9%
viability, T/C [36]: 39.5%

SMILES: CC1(C)CCC(Nc2ncc(C(F)(F)F)c(-c3c[nH]c4c(P(C)(C)=O)c(C#N)ccc34)n2)CN1 (stereo not given) + COc1c(OCCCN2CCOCC2)ccc2c3n(c(=NC(=O)c4cnc(N)nc4)nc12)CCN3
IC50 (second compound 0.00316 µM): > 10 µM
IC50 (second compound 0.01 µM): 9.47 µM
IC50 (second compound 0.0316 µM): 3.06 µM
IC50 (second compound 0.1 µM): 0.196 µM
IC50 (second compound 0.316 µM): < 0.0316 µM
IC50 (second compound 1 µM): < 0.0316 µM
viability, T/C [1]: 84.5%
viability, T/C [2]: 81.8%
viability, T/C [3]: 80.2%
viability, T/C [4]: 80%
viability, T/C [5]: 66.2%
viability, T/C [6]: 59.6%
viability, T/C [7]: 79.7%
viability, T/C [8]: 77.4%
viability, T/C [9]: 75.2%
viability, T/C [10]: 75.5%
viability, T/C [11]: 61.9%
viability, T/C [12]: 49.4%
viability, T/C [13]: 69.9%
viability, T/C [14]: 84%
viability, T/C [15]: 73.8%
viability, T/C [16]: 66.5%
viability, T/C [17]: 49.4%
viability, T/C [18]: 45.9%
viability, T/C [19]: 72.3%
viability, T/C [20]: 47.6%
viability, T/C [21]: 54.1%
viability, T/C [22]: 45.5%
viability, T/C [23]: 43.7%
viability, T/C [24]: 36.5%
viability, T/C [25]: 49.4%
viability, T/C [26]: 45%
viability, T/C [27]: 37.3%
viability, T/C [28]: 38.4%
viability, T/C [29]: 36.6%
viability, T/C [30]: 22.3%
viability, T/C [31]: 32%
viability, T/C [32]: 27.4%
viability, T/C [33]: 34%
viability, T/C [34]: 30.7%
viability, T/C [35]: 27.1%
viability, T/C [36]: 20.9%

SMILES: Cn1nccc1Nc1nccc(-c2ccn(C(CO)c3ccc(Cl)c(F)c3)c(=O)c2)n1 (stereo not given) + COc1c(OCCCN2CCOCC2)ccc2c3n(c(=NC(=O)c4cnc(N)nc4)nc12)CCN3
IC50 (second compound 0.00316 µM): > 10 µM
IC50 (second compound 0.01 µM): > 10 µM
IC50 (second compound 0.0316 µM): > 10 µM
IC50 (second compound 0.1 µM): > 10 µM
IC50 (second compound 0.316 µM): 0.0651 µM
IC50 (second compound 1 µM): < 0.0316 µM
viability, T/C [1]: 117%
viability, T/C [2]: 117%
viability, T/C [3]: 86.2%
viability, T/C [4]: 86.9%
viability, T/C [5]: 137%
viability, T/C [6]: 74.5%
viability, T/C [7]: 96.2%
viability, T/C [8]: 87.6%
viability, T/C [9]: 96.4%
viability, T/C [10]: 100%
viability, T/C [11]: 97.5%
viability, T/C [12]: 97.8%
viability, T/C [13]: 73.5%
viability, T/C [14]: 96.8%
viability, T/C [15]: 72.9%
viability, T/C [16]: 79.2%
viability, T/C [17]: 83.1%
viability, T/C [18]: 84.8%
viability, T/C [19]: 61.1%
viability, T/C [20]: 67%
viability, T/C [21]: 55.6%
viability, T/C [22]: 86.7%
viability, T/C [23]: 58.9%
viability, T/C [24]: 43.6%
viability, T/C [25]: 58.5%
viability, T/C [26]: 43%
viability, T/C [27]: 34.8%
viability, T/C [28]: 49.5%
viability, T/C [29]: 57.5%
viability, T/C [30]: 29.3%
viability, T/C [31]: 44.4%
viability, T/C [32]: 31%
viability, T/C [33]: 40.7%
viability, T/C [34]: 49.4%
viability, T/C [35]: 42.9%
viability, T/C [36]: 27.6%
